In article PMC13629022 (ACS Omega, 2026):
pIC50: −log10 of the molar value. “Also recorded” adds a separate entry of the source. Read-outs that look alike come from different tables or passages of the source.

Experiments:
[1] = tested on: murine macrophage-like J774.A1 cells; assay: Cytotoxicity to J774.A1 macrophages (Alamar Blue); settings: concentrations up to 500 μM (compounds 7 and 13 up to 250 μM)
Protocol: Cells were incubated for 72 h at 37 °C in a 5% CO2 atmosphere, as previously described. They were then stimulated with LPS (500 ng/mL, Sigma Chemical Co., St. Louis, MO, USA) and IFN-γ (5 ng/mL, Sigma). Compounds were added to the medium at eight concentrations ranging from 1.9 to 500 μM, in triplicate, and incubated for 24 h. Subsequently, 20 μL per well of Alamar Blue (Invitrogen, Carlsbad, CA, USA) was added to the plates for 6 h. Compounds 7, 11, and 13 were evaluated only up to a maximum concentration of 250 μM due to the limited amount of purified material available for testing. Colorimetric readings were performed at 570 and 600 nm. Triton X-100 (5%) was used as the positive control.

[2] = tested on: nitric oxide production by stimulated J774.A1 macrophages; assay: Nitric oxide production by LPS + IFN-γ stimulated J774.A1 macrophages (nitrite, Griess method); assay type: cell-based, murine; settings: for pIC50 / Emax / IC50: Mus musculus; for pIC50 / Emax: J774.A1, 24 h; for pIC50: read-out: IC50, half maximal inhibitory concentration, NO production, J774.A1 macrophages stimulated with LPS (500 ng/mL) + IFN-γ (5 ng/mL), 24 h, nitrite by Griess; for Emax: read-out: efficacy: maximum effect (% of the maximum possible effect), inhibition of NO production, J774.A1 macrophages stimulated with LPS + IFN-γ, 24 h; for IC50: J774.A1, read-out: IC50 (in Figure 8 panels), nitric oxide production, Figure 8, no unit in the boxes, μM only in axis labels, LPS + IFN-γ stimulated J774.A1
Protocol: (§1) For cytokine and nitric oxide evaluations, J774.A1 cells were seeded in 96-well tissue culture plates at 2 × 10^5 cells per well in DMEM supplemented with 10% FBS and 50 μg/mL gentamicin and incubated for 2 h at 37 °C in a 5% CO2 atmosphere, as previously described. Cells were then stimulated with LPS (500 ng/mL) and IFN-γ (5 ng/mL) in the presence of either the test compounds at different concentrations (3.9–250 μM), the medium alone, or dexamethasone (40 μM, reference drug) and further incubated at 37 °C. Cell-free supernatants were collected 24 h after incubation for IL-1β, IL-6, and nitrite quantification. Cytokine concentrations in the supernatants of J774.A1 cultures were determined by enzyme-linked immunosorbent assay (ELISA) using the DuoSet kit (R&D Systems, Minneapolis, MN, USA), according to the manufacturer’s instructions. Results were expressed as picograms per milliliter (pg/mL) of IL-1β or IL-6. Quantification of nitrite as an indicator of nitric oxide production was performed using the Griess method. Three independent experiments were performed. −

[3] = tested on: IL-1β production by stimulated J774.A1 macrophages; assay: IL-1β production by LPS + IFN-γ stimulated J774.A1 macrophages (ELISA); assay type: cell-based, murine; settings: compounds at 62.5 μM, Dexa 40 μM, 24 h, vs stimulated untreated cells, p < 0.05
Protocol: as §1, with “Cells” for “For cytokine and nitric oxide evaluations, J774.A1 cells were seeded in 96-well tissue culture plates at 2 × 10^5 cells per well in DMEM supplemented with 10% FBS and 50 μg/mL gentamicin and incubated for 2 h at 37 °C in a 5% CO2 atmosphere, as previously described. Cells”

[4] = tested on: IL-6 production by stimulated J774.A1 macrophages; assay: IL-6 production by LPS + IFN-γ stimulated J774.A1 macrophages (ELISA); assay type: cell-based, murine; settings: compounds at 62.5 μM, Dexa 40 μM, 24 h, vs stimulated untreated cells, p < 0.05
Protocol: as §1, with “Cells” for “For cytokine and nitric oxide evaluations, J774.A1 cells were seeded in 96-well tissue culture plates at 2 × 10^5 cells per well in DMEM supplemented with 10% FBS and 50 μg/mL gentamicin and incubated for 2 h at 37 °C in a 5% CO2 atmosphere, as previously described. Cells”

Row | Structure (SMILES) | cytotoxic effects in J774 macrophages (in words) [1] | pIC50 [2] | Emax [2] [%] | production of IL-1β (in words) [3] | production of IL-6 (in words) [4] | IC50 [2] [µM] | efficacy: maximum effect (% of the maximum possible effect), inhibition of NO production ([2]; J774.A1 macrophages stimulated with LPS + IFN-γ, 24 h) [%]
1 | COC1CC(OC2CCC3(C)C(CCC4(O)C3CC(OC(=O)C=Cc3ccccc3)C3(C)C(O)(C(C)OC(=O)c5ccccc5)CCC43O)C2)OC(C)C1OC1CC(OC)C(OC2OC(C)C(O)C(OC)C2O)C(C)O1 [Compound 4, 12-O-cinnamoyl-20-O-benzoyl-(20R)-5,6-dihydrosarcostin-3-O-β-D-6-deoxy-3-O-methyl-allopyranosyl-(1 → 4)-β-D-oleandropyranosyl-(1 → 4)-β-D-cymaropyranoside] | did not induce cytotoxic effects | < 4.00 | < 50 | significant reduction | reduced IL-1β production but not IL-6 |  | 
2 | COC1CC(OC2CCC3(C)C(CCC4(O)C3CC(OC(C)=O)C3(C)C(C(C)O)CCC43O)C2)OC(C)C1OC1CC(OC)C(OC2OC(C)C(O)C(OC)C2O)C(C)O1 [Compound 16, 12-O-acetyl-(20S)-5,6,17-trihydrosarcostin-3-O-β-D-6-deoxy-3-O-methyl-allopyranosyl-(1 → 4)-β-D-oleandropyranosyl-(1 → 4)-β-D-cymaropyranoside] | only mild cytotoxicity at the highest concentrations | 4.15 to 4.40 | < 50 | significant reduction | reduced IL-1β production but not IL-6 |  | 
3 | COC1CC(OC2CCC3(C)C(CCC4C3CC(OC(=O)C=Cc3ccccc3)C3(C)C(C(C)O)CCC43O)C2)OC(C)C1OC1CC(OC)C(OC2OC(C)C(O)C(OC)C2O)C(C)O1 [Compound 10, 12-O-cinnamoyl-(20S)-5,6,8,17-tetrahydrosarcostin-3-O-β-D-6-deoxy-3-O-methyl-allopyranosyl-(1 → 4)-β-D-oleandropyranosyl-(1 → 4)-β-D-cymaropyranoside] | most cytotoxic | 4.76 | 66.1 | significantly reducing; also recorded: significant reduction; also recorded: comparable to those of Dexa | significantly reducing; also recorded: comparable to those of Dexa | 17.5 | 
4 | COC1CC(OC2C(C)OC(OC3CCC4(C)C(CCC5(O)C4CC(OC(=O)C=Cc4ccccc4)C4(C)C(O)(C(C)OC(=O)c6cccnc6)CCC54O)C3)CC2OC(C)=O)OC(C)C1OC1OC(C)C(O)C(OC)C1O [Compound 3, 12-O-cinnamoyl-20-O-nicotinoyl-(20R)-5,6-dihydrosarcostin-3-O-β-D-6-deoxy-3-O-methyl-allopyranosyl-(1 → 4)-β-D-oleandropyranosyl-(1 → 4)-β-D-3′-O-acetyl-cymaropyranoside] | did not induce cytotoxic effects | 4.54 | 71.8 | significant reduction; also recorded: comparable to those of Dexa | comparable to those of Dexa | 29.1 | 68.0
